This is an account of results in patent US20210292330A1, “PYRROLIDINE-FUSED HETEROCYCLES” (Erasca, Inc., priority 2020, published 2021).

The experiment has as its target T1, KRAS 4B G12C protein (Homo sapiens, UniProt P01116, G12C).
T1 construct: This protein contained 188 amino acids in total, including an N-terminal 6-Histidine tag; made in house; host or cells: E. coli BL21
Briefly: In vitro covalent adduct formation (CAF) assay by LC-MS. The note with it: compound 10 μM, protein 5 μM, 22° C., percentage of protein bound by the compound. Type of experiment: binding. In short, it runs like this: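 Recombinant His-TEV-tagged KRAS 4B G12C (residues 1-169, E. coli) at 5 μM in Tris-buffered saline pH 7.4 was incubated with 10 μM compound (4% DMSO) at 22° C. for one hour, sampling over time. Intact-mass LC-MS free:adduct ratios gave % protein bound; duplicates.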

`C=CC(=O)N1CCN(c2nc(OC[C@@H]3CCCN3C)nc3c2CN(C2CCc4ccccc42)C3)C[C@@H]1CCO` (stereo partly drawn) [1-101]: the “CAF (10 minutes/60 minutes) at 10 micromolar: 10 minutes” value (from here on “CAF … at 10 micromolar: 10 minutes”) is recorded as 0% and the “CAF (10 minutes/60 minutes) at 10 micromolar: 60 minutes” value (“CAF … at 10 micromolar: 60 minutes” below) is recorded as 1%.
On to `C=CC(=O)N1CCN(c2nc(OC[C@@H]3CCCN3C)nc3c2CN(Cc2ccc(F)cc2Cl)C3)C[C@@H]1CC#N` [1-96], for which the “CAF … at 10 micromolar: 10 minutes” value is recorded as 51% and the “CAF … at 10 micromolar: 60 minutes” value is given as 93%.
For `C=CC(=O)N1CCN(c2nc(OC[C@@H]3CCCN3C)nc3c2CN(Cc2cc(Cl)ccc2F)C3)[C@@H](C)C1` [1-33], in that order: 0% and 5%.
In the case of `C=CC(=O)N1CCN(c2nc(OC[C@@H]3CCCN3C)nc3c2CN(Cc2cc(C(F)(F)F)ccc2C)C3)C[C@@H]1CC#N` [1-8], the “CAF … at 10 micromolar: 10 minutes” value is recorded as 20% and the “CAF … at 10 micromolar: 60 minutes” value was found to be 62%.
As to `C=CC(=O)N1[C@H](C)CN(c2nc(OC[C@@H]3CCCN3C)nc3c2CN(Cc2c(Cl)ccc(O)c2C)C3)C[C@@H]1C` [1-333], the “CAF … at 10 micromolar: 10 minutes” value was 17% and the “CAF … at 10 micromolar: 60 minutes” value was determined as 59%.
For `C=CC(=O)N1CCN(c2nc(OC[C@@H]3CCCN3C)nc3c2CN(Cc2c(O)cccc2Cl)C3)C[C@@H]1CC#N` [1-51], in that order: 98%/ 98% and 98%/ 98%.
For `C=CC(=O)N1CCN(c2nc(OC[C@@H]3CCCN3C)nc3c2CN(Cc2cnccc2Cl)C3)C[C@@H]1CC#N` [1-119], in that order: 66% and 94%.
As for `C=CC(=O)N1CCN(c2nc(OC[C@@H]3CCCN3C)nc3c2CN(Cc2ccccc2CCC)C3)C[C@@H]1CC#N` [1-206], the “CAF … at 10 micromolar: 10 minutes” value amounted to 86% and the “CAF … at 10 micromolar: 60 minutes” value was found to be 94%.
In the case of `C=CC(=O)N1CCN(c2nc(OC[C@@H]3CCCN3Cc3ccccc3)nc3c2CN(C2CCc4ccccc42)C3)C[C@@H]1CC#N` (stereo partly drawn) [1-199], the “CAF … at 10 micromolar: 10 minutes” value is reported as 62% and the “CAF … at 10 micromolar: 60 minutes” value came out at 74%.
For `C=CC(=O)N1CCN(c2nc(OC)nc3c2CN(Cc2cc(F)ccc2Cl)C3)C[C@@H]1CC#N` [1-76], in that order: 0% and 7%.
On to `C=C(F)C(=O)N1CCN(c2nc(OC[C@@H]3CCCN3C)nc3c2CN(Cc2cc(O)ccc2Cl)C3)C[C@@H]1CC#N` [1-87], for which the “CAF … at 10 micromolar: 10 minutes” value was determined as 97% and the “CAF … at 10 micromolar: 60 minutes” value is listed as 99%.
For `C=CC(=O)N1CCN(c2nc(OC[C@@H]3CCCN3C)nc3c2CN(C2CCc4ccccc42)C3)C[C@@H]1CS(C)(=O)=O` (stereo partly drawn) [1-200], in that order: 0% and 2%.
On to `C=CC(=O)N1CCN(c2nc(OC[C@@H]3CCCN3C)nc3c2CN(Cc2cc(C)ccc2C)C3)C[C@@H]1CC#N` [1-70], for which the “CAF … at 10 micromolar: 10 minutes” value is 77% and the “CAF … at 10 micromolar: 60 minutes” value is recorded as 94%.
For the compound `C=CC(=O)N1CCN(c2nc(OC3CC3)nc3c2CN(C2CCc4ccccc42)C3)C[C@@H]1CC#N` (stereo partly drawn) [1-152], the “CAF … at 10 micromolar: 10 minutes” value is recorded as 2% and the “CAF … at 10 micromolar: 60 minutes” value came to 19%.
For `C=CC(=O)N1CCN(c2nc(OC[C@@H]3CCCN3CC(F)F)nc3c2CN(C2CCc4ccccc42)C3)C[C@@H]1CC#N` (stereo partly drawn) [1-147], in that order: 78% and 86%.
For `C=CC(=O)N1CCN(c2nc(OC[C@@H]3CCCN3C)nc3c2CN(Cc2cc(Cl)ccc2Cl)C3)[C@@H](C)C1` [1-41], in that order: 3% and 22%.
For `C=CC(=O)N1CCN(c2nc(OC[C@@H]3CCCN3C)nc3c2CN(Cc2c(Cl)cccc2OC(F)F)C3)[C@H](C)C1` [1-91], in that order: 0%/ 0% and 0%/ 0%.
In the case of `C=CC(=O)N1CCN(c2nc(OC[C@@H]3CCCN3C)nc3c2CN(Cc2ccc(F)cc2C(C)C)C3)C[C@@H]1CC#N` [1-196], the “CAF … at 10 micromolar: 10 minutes” value was 41% and the “CAF … at 10 micromolar: 60 minutes” value came to 52%.
For `C=CC(=O)N1CCN(c2nc(OC[C@@H]3CCCN3C)nc3c2CN(Cc2cc(O)c(Cl)cc2C)C3)C[C@@H]1CC#N` [1-331], in that order: 32% and 76%.
For the compound `C=CC(=O)N1CCN(c2nc(OC[C@@H]3CCCN3C)nc3c2CN(C2CCc4ccc(O)c(Cl)c42)C3)C[C@@H]1CC#N` (stereo partly drawn) [1-342], the “CAF … at 10 micromolar: 10 minutes” value is 80% and the “CAF … at 10 micromolar: 60 minutes” value turned out to be 87%.
For `C=CC(=O)N1CCN(c2nc(OC[C@@H]3CCCN3C)nc3c2CN(Cc2cc(F)cc(F)c2)C3)C[C@@H]1CC#N` [1-12], the “CAF … at 10 micromolar: 10 minutes” value stood at 28% and the “CAF … at 10 micromolar: 60 minutes” value was 74%.
Turning to `C=CC(=O)N1CCN(c2nc(OC[C@@H]3CCCN3C)nc3c2C(C(F)(F)F)N(Cc2ccccc2)C3)C[C@@H]1CC#N` (stereo partly drawn) [1-181, 2-((2S)-1-acryloyl-4-(6-benzyl-2-(((S)-1-methylpyrrolidin-2-yl)methoxy)-5-(trifluoromethyl)-6,7-dihydro-5H-pyrrolo[3,4-d]pyrimidin-4-yl)piperazin-2-yl)acetonitrile], the “CAF … at 10 micromolar: 10 minutes” value is reported as 0%/ 0% and the “CAF … at 10 micromolar: 60 minutes” value came out at 0%/ 0%.
As to `C=CC(=O)N1CCN(c2nc(OC[C@@H]3CCCN3C)nc3c2CN(C(C)c2cc(O)ccc2C)C3)[C@@H](C)C1` (stereo partly drawn) [1-54], the “CAF … at 10 micromolar: 10 minutes” value is 70% and the “CAF … at 10 micromolar: 60 minutes” value came out at 77%.
Consider `C=C(F)C(=O)N1CCN(c2nc(OC[C@@H]3CCCN3C)nc3c2CN(Cc2c(C)cc(C)c(O)c2C)C3)C[C@@H]1CC#N` [1-325], for which the “CAF … at 10 micromolar: 10 minutes” value is on record as 0% and the “CAF … at 10 micromolar: 60 minutes” value is given as 3%.
Consider `C=CC(=O)N1CCN(c2nc(OC[C@@H]3CCCN3C)nc3c2CN(S(=O)(=O)c2ccccc2C)C3)C[C@@H]1CC#N` [1-237], for which the “CAF … at 10 micromolar: 10 minutes” value was found to be 27% and the “CAF … at 10 micromolar: 60 minutes” value is 80%.
Take `C=CC(=O)N1CCN(c2nc(OC[C@@H]3CCCN3C)nc3c2CN(Cc2cccc(Cl)c2Cl)C3)C[C@@H]1CC#N` [1-81]: the “CAF … at 10 micromolar: 10 minutes” value is 96% and the “CAF … at 10 micromolar: 60 minutes” value was determined as 98%.
For `C=CC(=O)N1CCN(c2nc(OC[C@@H]3CCCN3C)nc3c2CN(Cc2cc(O)c(C)cc2Cl)C3)C[C@@H]1CC#N` [1-323], in that order: 72% and 93%.
`C=CC(=O)N1CCN(c2nc(OC[C@@H]3CCCN3C)nc3c2CN(Cc2cc(Cl)ccc2C)C3)[C@@H](C)C1` [1-30]: the “CAF … at 10 micromolar: 10 minutes” value came to 0% and the “CAF … at 10 micromolar: 60 minutes” value was 7%.
For `C=CC(=O)N1CCN(c2nc(OC[C@@H]3CCCN3C)nc3c2CN(Cc2cccc4cccc(C)c24)C3)C[C@@H]1CC#N` [1-16], the “CAF … at 10 micromolar: 10 minutes” value is reported as 40% and the “CAF … at 10 micromolar: 60 minutes” value amounted to 86%.
As to `C=CC(=O)N1CCN(c2nc(O[C@@H]3CN(C)C[C@H]3OC)nc3c2CN(C2CCc4ccccc42)C3)C2CS(=O)(=O)CC21` (stereo partly drawn) [1-228], the “CAF … at 10 micromolar: 10 minutes” value is given as 0%/ 0% and the “CAF … at 10 micromolar: 60 minutes” value came out at 0%/ 0%.
As for `C=CC(=O)N1CC2COCC(C1)N2c1nc(OC[C@@H]2CCCN2C)nc2c1CN(Cc1cc(O)ccc1Cl)C2` [1-90], the “CAF … at 10 micromolar: 10 minutes” value is on record as 2% and the “CAF … at 10 micromolar: 60 minutes” value was 12%.
For `C=CC(=O)N1CCN(c2nc(OC[C@@H]3CCCN3C)nc3c2CN(Cc2c(Cl)cccc2OC(F)F)C3)C[C@@H]1CC#N` [1-82], in that order: 94% and 98%.
Take `C=CC(=O)N1CCN(c2nc(OC[C@@H]3CCCN3C)nc3c2CN(Cc2ccccc2F)C3)C[C@@H]1CC#N` [1-102]: the “CAF … at 10 micromolar: 10 minutes” value came to 89% and the “CAF … at 10 micromolar: 60 minutes” value is 96%.
`C=CC(=O)N1CCN(c2nc(OC[C@@H]3CCCN3C)nc3c2CN(Cc2[nH]c(=O)ccc2Cl)C3)[C@@H](C)C1` [1-69, 6-((4-((S)-4-acryloyl-2-methylpiperazin-1-yl)-2-(((S)-1-methylpyrrolidin-2-yl)methoxy)-5,7-dihydro-6H-pyrrolo[3,4-d]pyrimidin-6-yl)methyl)-5-chloropyridin-2(1H)-one]: the “CAF … at 10 micromolar: 10 minutes” value is 0%/ 0% and the “CAF … at 10 micromolar: 60 minutes” value is 0%/ 0%.
`C=CC(=O)N1CCN(c2nc(-c3nnc(C)o3)nc3c2CN(C2CCc4ccccc42)C3)C[C@@H]1CC#N` (stereo partly drawn) [1-197, 2-((2S)-1-acryloyl-4-(6-(2,3-dihydro-1H-inden-1-yl)-2-(5-methyl-1,3,4-oxadiazol-2-yl)-6,7-dihydro-5H-pyrrolo[3,4-d]pyrimidin-4-yl)piperazin-2-yl)acetonitrile]: the “CAF … at 10 micromolar: 10 minutes” value is on record as 24% and the “CAF … at 10 micromolar: 60 minutes” value is 52%.
For `C=CC(=O)N1CCN(c2nc(OC[C@@H]3CCCN3C)nc3c2CN(Cc2c(Cl)cccc2Cl)C3)C[C@@H]1CC#N` [1-44], in that order: 98% and 100%.
